Legend:
Format in all cases: biochemical
VmeNucC [1] = molecular target: T1, VmeNucC (Vibrio metoecus, UniProt P0DUD6); experiment: Effect of ATP on NucC nuclease activity (fluorescent DNA duplex reporter)
T1 construct: His8 (TEV-cleavable, vector pEV5HisTEV) (N, cleaved yes); made in house; host or cells: E. coli C43(DE3)
Protocol: FIG. 4: Factors influencing NucC activity. Relative activities were determined by comparing the relative increase in fluorescence signal over time. A: Effect of NaCl concentration. B: NucC activity in different buffers. C: Effect of ATP on NucC nuclease activity.
(§1) All assays were performed on a FluoStar Omega plate reader (BMG Labtech) using fluorescence detection (λex/em 544/590 nm) and Corning black, non-binding half-area 96-well plates. […] Fluorescence was measured in 30 s intervals at 37° C. for up to 60 min. […] To determine limit of detection, the means of fluorescence intensities ranging between 28 and 32 min was analysed by one-way ANOVA and for multiple comparisons the Brown-Forsythe and Welch ANOVA test was applied. […] Relative activities between reaction conditions was determined by comparing the relative rates of the reactions. Rates were assumed to be proportional to the change in fluorescence signal over time and calculated from the slopes of linear regression analysis. Target specificity was analysed by extracting the time point (Tt) when the fluorescence intensity crossed a threshold value. The threshold value was set to ⅛^th of the maximal measured fluorescence signal of the reference target. […]

VmeNucC [2] = molecular target: T1, VmeNucC; experiment: NucC assay using synthetic cA3 as activator; conditions: FIG. 6
Protocol: FIG. 6: NucC assay using synthetic cA3 as activator. A: Selected fluorescence signal curves. B: The fluorescence intensities of measurements from 28-30 min reaction time were used for one-way ANOVA analysis. Multiplicity adjusted P values were calculated by Dunnett's multiple comparisons test (N=7). The assay was performed in duplicate. C: selected data from B with expanded y scale. ns: not significant, P value>0.05; ***: P value<0.001; ****: P value<0.0001.
as §1, with “value.” for “value. The threshold value was set to ⅛^th of the maximal measured fluorescence signal of the reference target.”

NucC = molecular target: T2, NucC (Vibrio metoecus, UniProt P0DUD6); experiment: Degradation of cA3 by NucC, liquid chromatography with UV detection; conditions: 100 μM cA3 with 0.5 μM NucC in reaction buffer for 60 min
T2 construct: His8 (TEV-cleavable, vector pEV5HisTEV) (N, cleaved yes); made in house; host or cells: E. coli C43(DE3)
Protocol: LC chromatograms with UV monitoring at 254 nm showing the reaction of 100 μM cA3 with 0.5 μM NucC under assay conditions after 15 and 60 min. A reaction in which NucC had been omitted was allowed to proceed for 60 min.
Some Csx1/Csm6 family proteins have an intrinsic “ring nuclease” activity for the degradation of their cOA activator—an activity that is probably important in vivo for the control of the CRISPR mediated immune response (9). In the context of assay development however, this is an undesirable characteristic. Furthermore, it is difficult to remove this activity from Csx1/Csm6 family proteins as the activity is closely linked with cOA binding and/or with the HEPN ribonuclease activity (18, 19). To determine whether NucC degrades its cA3 activator, we incubated 100 μM cA3 with […] NucC in reaction buffer for 60 min and monitored the products by liquid chromatography and UV detection (FIG. 5) after removal of the enzyme by ultracentrifugation (MWCO 3 kDa). […] This is perhaps not surprising given that NucC is a double stranded DNase and the activator is a cyclic ribonucleotide.

T1 sequence (P0DUD6 whole entry): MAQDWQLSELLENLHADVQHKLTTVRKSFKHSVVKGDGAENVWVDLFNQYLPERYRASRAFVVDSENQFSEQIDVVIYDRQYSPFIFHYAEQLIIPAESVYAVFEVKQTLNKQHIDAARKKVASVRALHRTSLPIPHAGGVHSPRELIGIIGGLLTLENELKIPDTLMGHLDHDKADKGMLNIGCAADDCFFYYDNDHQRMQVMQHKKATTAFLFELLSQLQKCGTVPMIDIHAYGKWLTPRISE
T2 sequence (P0DUD6 whole entry): as above

Row | SMILES | NucC activity retained (VmeNucC [1]; ATP concentration of 2 mM) | effect of ATP on NucC (VmeNucC [1]; ATP concentrations above 500 μM) | amount of synthetic cyclic nucleotide giving a clear signal (VmeNucC [2]) | depletion of cA3 by NucC (NucC)
1 | Nc1ncnc2c1ncn2[C@@H]1O[C@H](COP(=O)(O)OP(=O)(O)OP(=O)(O)O)[C@@H](O)[C@H]1O [ATP] | 50% | minor adverse effect |  | 
2 | Nc1ncnc2c1ncn2[C@@H]1O[C@@H]2COP(=O)(O)O[C@H]3[C@@H](O)[C@H](n4cnc5c(N)ncnc54)O[C@@H]3COP(=O)(O)O[C@H]3[C@@H](O)[C@H](n4cnc5c(N)ncnc54)O[C@@H]3COP(=O)(O)O[C@H]2[C@H]1O [cA3, cyclic tri-adenylate] |  |  | ≤ 10 pM | no significant depletion

Source: patent US20240191217A1, “CAS10-BASED ASSAY FOR NUCLEIC ACID DETECTION” (priority 2021, published 2024)
